Assay results published in PubChem BioAssay AID179 (DTP/NCI, 2004).
The source made the active and inactive calls.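 The calls were made as follows: active = compounds giving half or more protection of infected cells from virus-caused growth loss, again on retest; inactive = the rest.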

System: CEM cells HIV-1 protection, formazan growth assay
Experiment: NCI AIDS Antiviral Assay
Settings: for IC50: measured here: growth of uninfected CEM cells
How it was run: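 Human CEM cells, uninfected and HIV-1-infected, exposed to five drug concentrations; growth measured by soluble formazan assay and scored as percent protection from infection, with protecting compounds retested.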

Structure (SMILES)	EC50 [µM]	IC50 [µM]	outcome
CS(=O)(=O)OC1C(COC(=O)c2ccccc2)OC2C1Oc1nc(=O)ccn12 (stereo not given)	> 200	> 200	–
COC(=O)C(=O)C(C(=O)C=C(C)C)C(=O)C(=O)Nc1ccc(Cl)cc1C (stereo not given)	–	–	inactive
C=CCN1C(=O)C(c2ccccc2)(c2ccccc2)NC1=S	> 85.1	> 85.1	–
Clc1cc(OCC23CC4CC(CC(C4)C2)C3)nc(OCC23CC4CC(CC(C4)C2)C3)n1	> 100	> 100	–
O=Cn1c2ccccc2c2ccccc21	> 200	170	–
CCOC(=O)c1nc2ccccc2nc1Nc1ccc(C(=O)OC)s1	> 200	> 200	–
CCOC(=O)C[P+](c1ccc(Cl)cc1)(c1ccc(Cl)cc1)c1ccc(Cl)cc1	> 200	18.6	–
Cc1cc(C)nc(NS(=O)(=O)c2ccc(NC(=O)c3cccc4c(Nc5ccc(S(=O)(=O)Nc6nc(C)cc(C)n6)cc5)c5ccccc5nc34)cc2)n1	> 33.9	30.2	–
COC(=O)C1=C(C(=O)OC)C2C(C)=CC(C)=CN2C(C#N)=C(SC)S1 (stereo not given)	> 13.8	> 13.8	–
CCOC1OC(CO[Si](C)(C)C(C)(C)C)C(O)CC1n1ccc(=O)[nH]c1=O (stereo not given)	> 200	31.6	–
Cn1c(=O)c2nc3sc4c(n3c2n(C)c1=O)C(=O)c1ccccc1C4=O	> 14.1	> 14.1	–
CC[C@H]1CN2CCc3cc(OC)c(OC)cc3[C@@H]2C[C@@H]1C[C@@H]1c2cc(OC)c(OC)cc2CCN1N=O	–	–	inactive
COc1ccc2cc3c4cc(OC)c(OC)cc4ccn3c2c1	> 23.4	22.9	–
Cc1csc(/N=C\c2c(O)c3ccccc3oc2=O)n1	> 200	36.3	–
C=CCCCCCCCCC(=O)ON(Cc1ccc(O)c(OC)c1)C(=O)C(F)(F)F	> 200	> 200	–
Cc1nc2n(C)c3ncn(Cc4ccccc4)c3c(=O)n2c1/C=C/C(C)C	> 33.1	> 33.1	–
C=CC(C)(O)CN(C=O)Cc1ccccc1 (stereo not given)	> 589	> 589	–
Cn1cnc(N2CCCC2)c(C#N)c1=S	> 200	> 200	–
O=C(O)c1cc[c]([Sb](=[O])([OH])[OH])cc1[N+](=O)[O-]	10.2	398	–
Cc1ccc2c(c1)CNc1ccc(C)cc1CN2	–	–	inactive
CC1=N/C(=C\c2cccc3ccccc23)C(=O)O1	> 11.5	> 11.5	–

Structure (SMILES)	EC50 [µM]	IC50 [µM]	outcome
O=C1C=CC(=Nc2ccc3c(c2)Cc2ccccc2-3)O1	> 200	32.4	–
COCC(O)COn1c(=O)c(C#N)[n+]([O-])c2ccccc21 (stereo not given)	> 200	30.2	–
COc1c(C2(c3ccc(F)cc3)SCCCS2)c(=O)c1=O	> 200	> 200	–
CC(C)(C)n1[se]c2ccccc2c1=O	> 129	9.33	–
CC1=Nc2nc(=NCCCN(C)C)nc3cccc(n23)N1	> 200	> 200	–
COC1/C=C/OC2(C)Oc3c(C)c(O)c4c(c3C2=O)C(=O)C(CO)=C(NC(=O)/C(C)=C\C=C\C(C)C(O)C(C)C(O)C(C)C(OC(C)=O)C1C)C4=O (stereo not given)	> 200	91.2	–
C[CH2][Sn]([CH2]C)([O]C(=O)c1ccccc1F)[O][Sn]([CH2]C)([CH2]C)[O]C(=O)c1ccccc1F	> 39.8	25.1	–
CCN(CC)c1nnc(CCCCCCCCc2nnc(N(CC)CC)o2)o1	> 200	> 200	–
CN(C)c1ccc(C=Nc2ccc(SSc3ccc(N=Cc4ccc(N(C)C)cc4)cc3)cc2)cc1	> 200	25.1	–
O/N=C/C1C(OCc2ccccc2)C(OCc2ccccc2)C(OCc2ccccc2)CN1Cc1ccccc1 (stereo not given)	–	–	inactive
COC(=O)c1ccc(CSc2ccc(N)cc2)cc1	–	–	inactive
O=C(O)c1ccc(CSc2ccccc2C(=O)O)cc1	> 126	> 126	–
COC(=O)c1c(C(=O)OC)c2c(C)nn3ccc1n23	> 955	> 955	–
Cc1nn(C(=O)Cc2ccccc2)c2c1C(c1ccc(/C=C/c3ccccc3)cc1)SC(N)=N2 (stereo not given)	148	> 200	–
CCN(CC)C(=O)C1(C)NS(=O)(=O)c2ccccc2C1=O (stereo not given)	> 200	> 200	–
COCCOCCOCCOc1ccc(C(C#N)N(CCc2ccccc2)C(=O)c2cc(C(=O)N(CCc3ccccc3)C(C#N)c3ccc(OCCOCCOCCOC)cc3)cc(C(=O)N(CCc3ccccc3)C(C#N)c3ccc(OCCOCCOCCOC)cc3)c2)cc1 (stereo not given)	> 200	> 200	–
CCn1c(=O)c2c3ccc(O)cc3oc2c2ccc(O)cc21	> 200	89.1	–
COC(=O)c1c(C)oc2ccc(OC(C)=O)cc12	–	–	inactive
CC=C(c1cc(Cl)c(OC)c(C(=O)OC)c1)c1cc(Cl)c(OC)c(C(=O)OC)c1	> 2	0.0631	–
CC(=O)C1CC=C(C)CC1 (stereo not given)	> 1820	141	–
CCOC(=O)/C(C(=S)NC)=C(/N)N1CCCC1	> 200	> 200	–

Structure (SMILES)	EC50 [µM]	IC50 [µM]	outcome
CCCc1nc2c(nc1C)C(=O)C=CC2=O	> 832	17	–
OC(c1ccccc1)c1c(-c2ccccc2)[nH]c(-c2ccccc2)c1C(O)c1ccccc1 (stereo not given)	–	–	inactive
O=[N+]([O-])c1ccc(N2CCOS(=O)OCC2)cc1	> 200	> 200	–
Cc1ccc(C)c(NC(=O)C(=O)C2C(=O)N(c3ccccc3)N=C2N)c1 (stereo not given)	> 708	631	–
CC1=CC[C@H](C[C@H](C#CCCCC2OCCO2)O[Si](C(C)C)(C(C)C)C(C)C)C(=O)CC1	> 200	9.77	–
OCC1(CO)CCCC(CO)(CO)C1O	> 200	> 200	–
Cc1cccc(C)c1NC(=O)/C(CC(=O)CC(c1ccccc1)c1c(O)c2ccccc2oc1=O)=N/O (stereo not given)	> 263	204	–
N#CC(/C(=N/N=C(N)N)C(=O)Nc1ccccc1[N+](=O)[O-])c1nc(-c2ccc([N+](=O)[O-])cc2)cs1 (stereo not given)	> 27.5	> 27.5	–
O=C1c2cc3c(cc2CC12Cc1ccc4c(c1C2=O)CCC4)CCCC3 (stereo not given)	> 200	> 200	–
COC(=O)C(=O)C(C(=O)Nc1cccc(C)c1C)C1Sc2ccccc2NC1=O (stereo not given)	> 17.4	16.6	–
CCOC(OCC)[C@@H]1C[C@@H]2N(O[C@H](OC3CCCC3(c3ccccc3)c3ccccc3)[C@H](OC(C)=O)[C@@]2(CC)Cc2ccc(OC)c(OC)c2)O1 (stereo not given in full)	> 200	> 200	–
Cc1[nH]ccc2c1[nH]c1cc(=O)ccc12	> 1070	16.6	–
CCc1nc(N)c2nc(-c3cccs3)oc2n1	> 200	182	–
CCCCCCCCCCCCCCCCc1c(C(=O)OC)[nH]c(=S)[nH]c1=O	> 3.55	> 3.55	–
Cc1ccc(S(=O)/C=C(\NC(=O)OCc2ccccc2)C(F)(F)F)cc1 (stereo not given)	–	–	inactive
C=C1C(=O)O[C@H]2[C@H]3O[C@@H](C[C@@H]12)[C@](C)(O)CC[C@@H]1O[C@@]1(C)CCC[C@H]3C	> 200	8.13	–
CC1=NN(c2ccccc2)C(=O)C1N=Nc1ccc(S(=O)(=O)Nc2occ(C)c2C)cc1 (stereo not given)	–	–	inactive
CC(=O)NS(=O)(=O)c1ccc(NC(=O)c2ccccc2SSc2ccccc2[N+](=O)[O-])cc1	8.91	30.9	–
O=c1[nH]ncc(N/N=C(/C=C/c2ccc(C/C(=N/Nc3cn[nH]c(=O)c3Cl)c3ccccc3)cc2)c2ccccc2)c1Cl	–	–	inactive
O=C(O)c1ccccc1CC1Cc2ccccc2C1=O (stereo not given)	> 200	> 200	–
Clc1nn2nnnc2c2ccccc12	> 66.1	1.23	–

Structure (SMILES)	EC50 [µM]	IC50 [µM]	outcome
Cc1cc2nnc(-c3cccc([N+](=O)[O-])c3)n2c2nnnn12	> 200	> 200	–
O=c1cc(-c2ccc(O)c(O)c2)oc2cc(OC3OC(CO)C(O)C(O)C3O)cc(O)c12 (stereo not given)	> 200	15.5	–
COc1ccc2c(c1)CCC1=C/C(=N\NC(N)=O)CCC12C (stereo not given)	> 63.1	> 63.1	–
COc1cc2c(cc1OC)C13CC[N+]4(C)CC5=CCOC6CC(=O)N2C1C6C5CC34[O-] (stereo not given)	–	–	inactive
COCCn1cnc2c(Cl)nc(Nc3ccccc3)nc21	> 200	28.8	–
CCOP(=O)(OCC)C(C)(CC)NC1=NC(C(F)(F)F)(C(F)(F)F)NC(=O)N1 (stereo not given)	> 200	> 200	–
C=C1NC(=O)C(CC(C(=O)C(=O)Nc2c(C)cccc2C(C)(C)C)C(=O)c2ccc3ccccc3c2)C(=O)N1 (stereo not given)	> 178	> 178	–
COP(=O)(OC)/C(=C/c1cnc[nH]1)NC=O	> 200	> 200	–
O=C(O)c1[nH][nH]c(=O)c1N=Nc1ccc(/C=C/c2ccc(N=Nc3c(C(=O)O)[nH][nH]c3=O)cc2S(=O)(=O)O)c(S(=O)(=O)O)c1	> 200	> 200	–
CC1=C/C(=N\N(C)C)C(C(O)(C(F)(F)F)C(F)(F)F)C(C)(C)C1 (stereo not given)	> 200	102	–
O=C1C(C(c2ccccc2)N2CCOCC2)=C(O)C(c2ccccc2)N1c1ccccc1 (stereo not given)	–	–	inactive
Cc1ccc(C)n1N1CC(C)N(N=O)CC1C (stereo not given)	> 200	> 200	–
NC(=O)NCc1c(C(N)=O)ncn1Cc1ccccc1	–	–	inactive
Cc1nc(-c2nc(C)c(C(=O)NNC(=O)C[n+]3ccccc3)s2)sc1C(=O)NNC(=O)C[n+]1ccccc1	> 57.5	> 57.5	–
CCOc1nc2sc3c(c2c(=O)n1CCSSCCn1c(OCC)nc2sc4c(c2c1=O)CCCC4)CCCC3	> 100	> 100	–
O=C(/C(=C/c1ccc([N+](=O)[O-])cc1)c1ccccc1)c1ccccc1	> 8.32	5.25	–
Cc1cccc(NC(=O)Nc2cccc(Cl)c2Cl)n1	> 200	> 200	–
O=C(O)Cc1cccc2c1OC(c1ccccc1)C(Cl)(C(=O)c1ccccc1)C2=O (stereo not given)	> 200	5.5	–
COc1ccc(-c2csc3c2[N+]2(C)C=CC=C2C3N2CCCC2)cc1 (stereo not given)	> 200	8.51	–
COc1ccc(/C=C2N=C(/C=C/c3ccccc3)OC\2=O)cc1OC	11	97.7	–
Cc1ccc(N=Nc2c(-c3ccccc3)nn(C(=O)CC(=O)Nc3ccc(Cl)cc3)c2-c2ccccc2)cc1	> 9.77	> 9.77	–
